The text below walks through data of PMC6783830 (Viruses, 2019).

The target of series [1] is VSV RdRp complex (L and P proteins on N–RNA) (Vesicular stomatitis Indiana virus, UniProt P03523). In kind it is biochemical.
For series [2], the system named is VSV. Nature of the series: microbe, parasite or virus in culture. The class given is cell-based. The settings on record: Vesicular stomatitis virus, BHK-21, in Mesocricetus auratus, 24 h, read-out: % Inhibition Metabolic Shut-down (CCK Assay).
Series [3] deals with VSV. Put plainly: microbe, parasite or virus in culture. The class given is cell-based. The settings on record: Vesicular stomatitis virus, BHK-21, in Mesocricetus auratus, 24 h, read-out: % Inhibition Nuclear Condensation (Cell Imaging).
The next series has as its target VSV RNP (Vesicular stomatitis Indiana virus, UniProt P03523). Nature of the series: biochemical. In kind it is biochemical. To be noted: for inhibition at 20 µM: read-out: % Inhibition mRNA Synthesis (In vitro Transcription).
Series [4] concerns VSV. In kind it is cell-based, Vesicular stomatitis virus in BHK-21 cells (hamster).
In series [5] the test system is VSV-AcGFP. In kind it is cell-based, Vesicular stomatitis virus in BHK-21 cells (hamster). To be noted: 10 µM.
Another series deals with BHK-21 cells. To be noted: at 100 µM.
Series [6] relates to CHPV.
Series [7] relates to HeLa cells.
Series [8] deals with VSV.
For series [9], the system named is RABV.
Series [10] relates to HPIV-3.
The test system of series [11] is HeLa cells. This is another data set of the same source.
A short description of series [12]: in vitro. The settings on record: hamster.
Series [13] is described as follows: in vitro. To be noted: human.
The test system of series [14] is VSV. Nature of the series: microbe, parasite or virus in culture. The settings on record: Vesicular stomatitis virus, BHK-21, in Mesocricetus auratus, 24 h, read-out: Anti-VSV Activity IC50 (VSV-induced metabolic shut-down).
Series [15] deals with CHPV. Put plainly: microbe, parasite or virus in culture. To be noted: Chandipura virus, BHK-21, in Mesocricetus auratus, 24 h, read-out: Anti-CHPV Activity IC50 (CHPV-induced metabolic shut-down).
The test system of series [16] is VSV. Put plainly: microbe, parasite or virus in culture. To be noted: Vesicular stomatitis virus, HeLa, in Homo sapiens, 65 h, read-out: Anti-VSV Activity IC50 (VSV-induced metabolic shut-down).
The target of the next series is VSV L protein (Vesicular stomatitis Indiana virus, UniProt P03523). Put plainly: biochemical. In kind it is biochemical.
Series [17] deals with HPIV-3. Put plainly: microbe, parasite or virus in culture. To be noted: Human respirovirus 3, HeLa, 72 h, read-out: Anti-HPIV-3 activity IC50.
Another series deals with CHPV RNP (Chandipura virus, UniProt P13179). Put plainly: biochemical.
The next series addresses HPIV-3 RNP (Human parainfluenza 3 virus, UniProt P12577). In kind it is biochemical, Human parainfluenza virus 3. The settings on record: at 10 µM.
Series [18] has as its target CHPV RdRp (L and P proteins) (Chandipura virus, UniProt P13179). Put plainly: biochemical. The settings on record: read-out: inhibition of CHPV AC synthesis.
In series [19] the target is VSV L protein (PRNTase domain) (Vesicular stomatitis Indiana virus, UniProt P03523). The class given is biochemical. To be noted: at 10 µM.
The subject of series [20] is VSV-AcGFP. In kind it is cell-based, Vesicular stomatitis virus in BHK-21 cells (hamster). To be noted: 10 µM. The source holds these as a separate data set.
Series [21] deals with RABV. Put plainly: microbe, parasite or virus in culture. The settings on record: Lyssavirus rabies, in mouse/rat NG108-15, 48 h, read-out: Anti-RABV activity IC50 (RABV gene expression, luciferase).

Read-outs that look alike come from different tables or passages of the source.

Sequence of VSV RNP (P03523 whole entry, looked up): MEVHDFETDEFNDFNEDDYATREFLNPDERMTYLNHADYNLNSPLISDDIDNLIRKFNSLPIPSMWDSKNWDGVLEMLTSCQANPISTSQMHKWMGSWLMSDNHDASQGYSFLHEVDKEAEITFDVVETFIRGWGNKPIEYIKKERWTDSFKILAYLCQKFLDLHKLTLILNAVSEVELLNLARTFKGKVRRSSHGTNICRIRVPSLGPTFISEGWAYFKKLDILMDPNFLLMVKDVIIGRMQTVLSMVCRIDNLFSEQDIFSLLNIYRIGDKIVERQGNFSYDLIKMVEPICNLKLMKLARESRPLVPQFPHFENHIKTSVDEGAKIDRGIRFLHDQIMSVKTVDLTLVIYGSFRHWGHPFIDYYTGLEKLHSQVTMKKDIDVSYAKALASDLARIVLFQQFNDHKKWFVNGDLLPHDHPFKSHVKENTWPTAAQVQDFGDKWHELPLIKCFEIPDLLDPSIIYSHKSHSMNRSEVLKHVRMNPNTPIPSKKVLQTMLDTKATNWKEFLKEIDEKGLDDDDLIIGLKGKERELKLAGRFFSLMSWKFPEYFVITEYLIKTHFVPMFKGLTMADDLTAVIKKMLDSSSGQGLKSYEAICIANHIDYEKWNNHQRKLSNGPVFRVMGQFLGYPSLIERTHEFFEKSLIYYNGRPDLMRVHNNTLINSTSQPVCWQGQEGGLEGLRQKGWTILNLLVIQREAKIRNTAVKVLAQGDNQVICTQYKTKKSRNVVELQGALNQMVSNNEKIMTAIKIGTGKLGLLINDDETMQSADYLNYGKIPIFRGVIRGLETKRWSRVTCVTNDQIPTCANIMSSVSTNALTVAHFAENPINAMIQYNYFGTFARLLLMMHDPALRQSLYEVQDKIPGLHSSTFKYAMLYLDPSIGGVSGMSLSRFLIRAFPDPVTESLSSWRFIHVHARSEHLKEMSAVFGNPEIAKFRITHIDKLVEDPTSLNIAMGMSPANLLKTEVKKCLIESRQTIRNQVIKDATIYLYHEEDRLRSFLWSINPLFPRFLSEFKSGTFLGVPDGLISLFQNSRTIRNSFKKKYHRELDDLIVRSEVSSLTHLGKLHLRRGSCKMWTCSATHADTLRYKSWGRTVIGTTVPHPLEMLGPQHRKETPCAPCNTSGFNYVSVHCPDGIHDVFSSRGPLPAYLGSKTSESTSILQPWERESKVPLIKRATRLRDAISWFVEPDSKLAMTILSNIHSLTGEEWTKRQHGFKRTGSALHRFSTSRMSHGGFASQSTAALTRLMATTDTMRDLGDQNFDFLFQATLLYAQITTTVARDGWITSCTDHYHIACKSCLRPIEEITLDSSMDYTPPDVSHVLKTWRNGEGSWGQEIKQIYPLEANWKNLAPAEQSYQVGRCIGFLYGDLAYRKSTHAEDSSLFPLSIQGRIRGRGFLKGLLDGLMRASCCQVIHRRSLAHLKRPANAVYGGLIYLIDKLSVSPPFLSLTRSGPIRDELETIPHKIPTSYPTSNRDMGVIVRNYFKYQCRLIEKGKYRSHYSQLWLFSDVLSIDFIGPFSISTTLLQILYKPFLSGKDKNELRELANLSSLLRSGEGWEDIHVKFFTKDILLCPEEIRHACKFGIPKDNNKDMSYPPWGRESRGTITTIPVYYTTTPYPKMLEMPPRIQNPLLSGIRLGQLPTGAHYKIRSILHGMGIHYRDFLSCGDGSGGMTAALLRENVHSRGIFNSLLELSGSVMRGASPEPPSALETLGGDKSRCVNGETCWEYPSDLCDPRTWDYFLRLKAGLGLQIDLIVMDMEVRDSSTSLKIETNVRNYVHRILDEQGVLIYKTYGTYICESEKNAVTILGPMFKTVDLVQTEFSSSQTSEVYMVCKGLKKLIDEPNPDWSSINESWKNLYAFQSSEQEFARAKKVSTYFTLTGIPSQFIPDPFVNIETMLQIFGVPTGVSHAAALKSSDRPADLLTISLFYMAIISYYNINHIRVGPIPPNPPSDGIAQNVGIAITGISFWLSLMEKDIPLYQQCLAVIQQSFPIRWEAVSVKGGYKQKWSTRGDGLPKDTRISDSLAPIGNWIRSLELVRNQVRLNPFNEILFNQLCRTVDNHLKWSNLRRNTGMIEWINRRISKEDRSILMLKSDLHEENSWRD
Sequence of VSV L protein (P03523 whole entry, looked up): as above

`O=C(O)CN(CCN(CC(=O)O)CC(=O)O)CC(=O)O` [EDTA, reference compound]: the “synthesis of LeRNA1–18 (pulse)” value in series [1] is “abolishes”.
Regarding `COc1cc2c(cc1C1CC(=O)Nc3cc(O)c(C)cc31)CCC2` (stereo not shown) [VPI E], the inhibition at 17 µM came out at 50% with VSV [2] and 94% with VSV [3]. Further, the inhibition at 20 µM at VSV RNP stood at 72%.
For `Cc1cc2c(cc1O)NC(=O)CC2c1cc2ccccc2n1C` (stereo not shown) [VPI D], in that order: 55%, 57% and 72%.
In the case of `Cc1cc2c(cc1O)NC(=O)CC2c1cc(C(C)(C)C)[nH]n1` (stereo not shown) [VPI B], the inhibition at 17 µM with VSV [2] worked out at 102%; with VSV [3] it was 92%. The inhibition at 20 µM on VSV RNP is 89%. Further, the “concentration that almost completely abolished VSV production” value in the series on VSV [4] is reported as at least 25 µM. In the series with VSV-AcGFP [5], the “nuclear condensation and AcGFP expression in infected cells” value was “abrogate”. For the same compound, the “cytotoxic effects on BHK-21 cells” value in the series on BHK-21 cells is “little or no cytotoxic effects”. The “Anti-CHPV Activity SI (CC50/IC50)” value in the series on CHPV [6] is on record as over 9. Besides, the “toxicity to HeLa cells” value with HeLa cells [7] is “less toxic”. For the same compound, the “VSV-induced cell rounding and detachment” value in the series on VSV [8] is “inhibited”. Also, in the series with RABV [9], the “inhibitory effect on RABV gene expression” value is recorded as “little or no inhibitory effect”. In addition, the “Cytotoxicity CC50” value in the series on NA cells and in the series on HeLa cells [11] was > 1 0 0 µM throughout. For the same compound, the “antiviral effects against HPIV-3” value with HPIV-3 [10] is given as “neither of the compounds showed any antiviral effects”. Further, the CC50 in “in vitro [12]” and in “in vitro [13]” was over 100 µM each time. The concentration for half-maximal inhibition (IC50) with VSV [14] was 6 µM; in the series on CHPV [15], 11 ± 1 µM; in the series with VSV [16], 1000 nM.
Consider `Cc1cc2c(cc1O)NC(=O)CC2c1ccc(Oc2ccccc2)cc1` (stereo not shown) [VPI G], for which the figures for the inhibition at 17 µM in the series with VSV [2] and with VSV [3] were 46% and 54%, respectively. In addition, at VSV RNP, the inhibition at 20 µM turned out to be 68%.
Turning to `Cc1cc2c(cc1O)NC(=O)CC2c1ccc(-c2cc[nH]n2)o1` (stereo not shown) [VPI F], the values for the inhibition at 17 µM with VSV [2] and with VSV [3] were 48% and 69%, respectively. For the same compound, the “effect on VSV mRNA synthesis, in words” value at VSV RNP (at 20 µM) is on record as “weak inhibitory effect”. In addition, the inhibition at 20 µM on VSV RNP amounted to 34%. For the same compound, the “AC synthesis with the VSV L and P proteins (Figure S4)” value on VSV L protein (10 µM) is given as “weakest”.
For the compound `NC(=O)c1ncn([C@@H]2O[C@H](CO)[C@@H](O)[C@H]2O)n1` [Ribavirin, reference compound], the “Anti-CHPV Activity SI (CC50/IC50)” value with CHPV [6] was under 1. In addition, the “Anti-HPIV-3 activity SI (CC50/IC50)” value in the series with HPIV-3 [10] is listed as over 5. For the same compound, the “Cytotoxicity CC50” value with HeLa cells [11] is reported as > 1 0 0 µM. For the same compound, the CC50 in the series “in vitro [12]” is 86 ± 0.5 µM; in “in vitro [13]”, over 100 µM. For the same compound, the IC50 in the series with VSV [14] was over 100 µM; in the series with CHPV [15], over 100 µM; in the series on VSV [16] it was 15000 ± 1000 nM; in the series with HPIV-3 [17], 21 µM.
Take `COc1ccc(C2CC(=O)Nc3cc(O)c(C)cc32)cc1Cn1cccn1` (stereo not shown) [VPI A]: the inhibition at 17 µM in the series with VSV [2] turned out to be 105%; with VSV [3], 98%. Also, the half-inhibitory concentration (IC50) was 810 ± 40 nM at VSV RNP; 3.3 ± 0.4 µM on CHPV RNP; 7.9 ± 0.4 µM with CHPV [6] (read-out: Anti-CHPV Activity IC50 (CHPV-induced metabolic shut-down)); 420 ± 20 nM in the series on VSV [8] (read-out: Anti-VSV Activity IC50 (VSV-induced metabolic shut-down)); 2 ± 0.1 µM with VSV [14]; 8 µM in the series on CHPV [15]. In addition, the results for the concentration for half-maximal inhibition (IC50) in the series on VSV [16] and with RABV [21] were 400 nM and 26 µM, respectively. In addition, at VSV RNP, the “VSV LeRNA synthesis” value was “represses”. For the same compound, the inhibition at 20 µM on VSV RNP was 99%. In addition, at HPIV-3 RNP, the “inhibition of in vitro mRNA synthesis of HPIV-3” value was “not”. Moreover, the “AC synthesis with the VSV L and P proteins” value at VSV L protein was “inhibit”. Also, the inhibition at 1 µM at VSV L protein (1 µM, read-out: inhibition of AC synthesis with the VSV L protein alone) stood at 85%; in series [18] (1 µM), 77%. Further, the “AC synthesis with the VSV L and P proteins (Figure S4)” value at VSV L protein (10 µM) is recorded as “strongest”. Further, the inhibition at 10 µM on VSV L protein (10 µM, read-out: inhibition of AC synthesis with the VSV L protein alone) was 100%; in series [18] (10 µM) it was 97%. In addition, the “capping activity of the PRNTase domain in the VSV L protein” value in series [19] was “slightly reduced”. Moreover, in the series on VSV [4], the “concentration that almost completely abolished VSV production” value was at least 12.5 µM. Besides, in the series on VSV-AcGFP [5], the “nuclear condensation and AcGFP expression in infected cells” value is given as “abrogate”. Moreover, the “synthesis of LeRNA1–18 (pulse)” value in [1] was “inhibits”. Besides, in the series on VSV-AcGFP [20], the “step of VSV infection inhibited (time-of-addition)” value is listed as “inhibits VSV infection at an early post-entry step”. For the same compound, the “cytotoxic effects on BHK-21 cells” value with BHK-21 cells is “little or no cytotoxic effects”. In addition, the “Anti-CHPV Activity SI (CC50/IC50)” value with CHPV [6] is over 13. Also, the “toxicity to HeLa cells” value with HeLa cells [7] is listed as “less toxic”. Further, the “VSV-induced cell rounding and detachment” value in the series on VSV [8] is “inhibited”. The “Anti-RABV activity SI (CC50/IC50)” value with RABV [9] is reported as over 4. Also, the “Cytotoxicity CC50” value with NA cells and in the series with HeLa cells [11] was > 1 0 0 µM throughout. Moreover, the “antiviral effects against HPIV-3” value with HPIV-3 [10] is “neither of the compounds showed any antiviral effects”. Moreover, the CC50 in the series “in vitro [12]” and in “in vitro [13]” was over 100 µM throughout.
`Cc1cc2c(cc1O)NC(=O)CC2c1c[nH]nc1-c1ccc(F)cc1` (stereo not shown) [VPI C]: the inhibition at 17 µM in the series on VSV [2] amounted to 58%; in the series with VSV [3], 63%. Besides, the inhibition at 20 µM on VSV RNP was determined as 72%.
For `COc1cc2c(cc1C1CC(=O)Nc3cc(O)c(C)cc31)OCCCO2` (stereo not shown) [VPI H], in that order: 34%, 53% and 73%.

One may read the inhibition as the change of the read-out against control, counted positive when it falls. The IC50 is the concentration that inhibits the measured activity by half.
